The values below come from US20100273804A1, “PYRIDAZINE DERIVATIVES USEFUL AS FUNGICIDES AND FOR THE TREATMENT OF CANCER” (SYNGENTA CROP PROTECTION, INC., priority 2007, published 2010).

Series [1] deals with Pyrenophora teres (Helminthosporium teres). Nature of the series: Pyrenophora teres (Helminthosporium teres)/barley/preventive (action against net blotch on barley). Format: in vivo. As to conditions: 96 h, barley plants cv. Regina, preventive spray, assessed 4 days after inoculation, read-out: inhibit fungal infestation. As to the method: Pyrenophora teres (Helminthosporium teres)/Barley/Preventive (Action Against Net Blotch on Barley) 1-week-old barley plants cv. Regina are treated with the formulated test compound in a spray chamber. Two days after application barley plants are inoculated by spraying a spore suspension (2.6×10^4 conidia/ml) on the test plants. After an incubation period of 4 days at 20° C. and 95% r.h. the disease incidence is assessed.

Series [2] has as its system Uncinula necator. Nature of the series: Uncinula necator/grape/preventive (action against powdery mildew on grape). In kind it is in vivo. The conditions noted are these: Erysiphe necator, 168 h, grape seedlings cv. Gutedel, preventive spray, assessed 7 days after inoculation, read-out: inhibit fungal infestation. The method, then:
Uncinula necator/Grape/Preventive (Action Against Powdery Mildew on Grape) 5 weeks old grape seedlings cv. Gutedel are treated with the formulated test compound in a spray chamber. One day after application grape plants are inoculated by shaking plants infected with grape powdery mildew above the test plants. After an incubation period of 7 days at 24° C./22° C. and 70% r.h. under a light regime of 14/10 h (light/dark) the disease incidence is assessed.

In series [3] the test system is Botrytis cinerea. Briefly: Botrytis cinerea/tomato/preventive (action against Botrytis on tomato). In kind it is in vivo. The conditions noted are these: 72 h, tomato plants cv. Roter Gnom, preventive spray, assessed 3 days after inoculation, read-out: inhibit fungal infestation. As to the method: Botrytis cinerea/tomato/preventive (Action against Botrytis on tomato) 4 weeks old tomato plants cv. Roter Gnom are treated with the formulated test compound in a spray chamber. Two days after application tomato plants are inoculated by spraying a spore suspension on the test plants. After an incubation period of 3 days at 20° C. and 95% r. h. in a greenhouse the disease incidence is assessed.

Series [4] concerns Maqnaporthe qrisea (Pyricularia oryzae). Briefly: whole plant or invertebrate. Format: in vivo. As to conditions: 144 h, read-out: inhibit fungal infestation.
The subject of series [5] is Septoria tritici. Nature of the series: Septoria tritici/wheat/preventive (action against Septoria leaf spot on wheat). In kind it is in vivo. As to conditions: Zymoseptoria tritici, wheat plants cv. Riband, preventive spray, assessed 16-18 days after inoculation, read-out: inhibits fungal infestation. The method, then: Septoria tritici/Wheat/Preventive (Action Against Septoria Leaf Spot on Wheat) 2 weeks old wheat plants cv. Riband are treated with the formulated test compound in a spray chamber. One day after application wheat plants are inoculated by spraying a spore suspension (10^6 conidia/ml) on the test plants. After an incubation period of 1 day at 22° C./21° C. and 95% r.h. plants are kept at 22° C./21° C. and 70% r.h. in a greenhouse. The disease incidence is assessed 16-18 days after inoculation.

Series [6] concerns Alternaria solani. Nature of the series: Alternaria solani/tomato/preventive (action against Alternaria on tomato). The conditions noted are these: 96 h, tomato plants cv. Roter Gnom, preventive spray, assessed 4 days after inoculation, read-out: inhibit fungal infestation. Format: in vivo. The method, then: Alternaria solani/Tomato/Preventive (Action Against Alternaria on Tomato) 4 weeks old tomato plants cv. Roter Gnom are treated with the formulated test compound in a spray chamber. Two days after application tomato plants are inoculated by spraying a spore suspension on the test plants. After an incubation period of 4 days at 22° C./18° C. and 95% r.h. in a greenhouse the disease incidence is assessed.

The subject of series [7] is Puccinia recondita. Briefly: Puccinia recondita/wheat/preventive (action against brown rust on wheat). Format: in vivo. The conditions noted are these: 264 h, wheat plants cv. Arina, preventive spray, assessed 11 days after inoculation, read-out: inhibit fungal infestation. As to the method:
Puccinia recondita/Wheat/Preventive (Action Against Brown Rust on Wheat) 1 week old wheat plants cv. Arina are treated with the formulated test compound in a spray chamber. One day after application wheat plants are inoculated by spraying a spore suspension ([…] uredospores/ml) on the test plants. After an incubation period of 1 day at 20° C. and 95% r.h. plants are kept for 10 days 20° C./18° C. (day/night) and 60% r.h. in a greenhouse. The disease incidence is assessed 11 days after inoculation.

SMILES strings stand for the structures. Some results are limits rather than exact numbers.

With `Cc1n[nH]c(=O)c(-c2c(F)cc(F)cc2F)c1Cc1ccc(Cl)cc1` [I.k.157, 5-(4-chloro-benzyl)-6-methyl-4-(2,4,6-trifluoro-phenyl)-2H-pyridazin-3-one], the melting point (as a rule, the temperature, or range, at which the solid turns liquid) lay within 212 to 215 °C.
Regarding `Cc1nnc(Cl)c(-c2c(F)cc(F)cc2F)c1Cc1ccc(Cl)cc1` [I.k.158, 3-chloro-5-(4-chloro-benzyl)-6-methyl-4-(2,4,6-trifluoro-phenyl)-pyridazine], the inhibition at 200 ppm in series [1], in series [2], in series [3], in series [4], in series [5] and in series [6] was no less than 80% each time. The inhibition at 200 ppm in series [7] is no less than 80%.
